Source: paper PMC9253215, “A new strategy: identification of specific antibodies for neutralizing epitope on SARS-CoV-2 S protein by LC-MS/MS combined with immune repertoire” (Molecular Biomedicine, 2022)
Ends that are not written are not given here.

Experiments:
[1] = test system: SARS-CoV-2
[2] = test system: SARS-CoV-2 pseudovirus; assay type: cell-based
[3] = target: T1, S1 protein (Severe acute respiratory syndrome coronavirus 2, UniProt P0DTC2); assay: biochemical; assay type: binding, SARS-CoV-2
T1 construct: Purified S1 protein was first immobilized on a series S sensor chip protein A; purchased OkayBio

Sequence | neutralizing activity against SARS-CoV-2 by IFA assay [1] | IC50 ([1]; 24 h) [µg/mL] | neutralizing ability by pseudovirus neutralizing assay [2] | neutralizing ability by authentic virus neutralization assays [1] | Kd [3] [µM]
EAWDVDNRVFGGGTR [CDR3 peptide 51] | obvious neutralizing activity | 1250 to 2500 |  |  | 
VRYSPEPAVLITEGYFD [CDR3 peptide 4] | modestly lower neutralizing activity |  | showed neutralizing ability | showed neutralizing ability | 
ARDVSSLYGGNSDDY [CDR3 peptide 24] | no neutralizing activity |  |  |  | 
AKDFRQYCSSTTCYDLDY [CDR3 peptide 21] | obvious neutralizing activity |  | showed neutralizing ability | showed neutralizing ability | 
ARDIVVPAAMGEIGGWFDP [CDR3 peptide 16] |  |  |  |  | 24.1
YYCQSYDSSNVV [CDR3 peptide 47] | modestly lower neutralizing activity |  | showed neutralizing ability | showed neutralizing ability | 
TTDRYQLLWAG [CDR3 peptide 22] | obvious neutralizing activity |  | showed neutralizing ability | showed neutralizing ability | 
YYCQQYDNLSGT [CDR3 peptide 44] | modestly lower neutralizing activity |  | showed neutralizing ability | showed neutralizing ability | 
ARERADDYSNYCWFDP [CDR3 peptide 12] | obvious neutralizing activity |  | showed neutralizing ability | showed neutralizing ability | 
VRERISYFDHWGQG [CDR3 peptide 53] | obvious neutralizing activity |  |  |  | 
ARESLYDFDGSGYVDALDV [CDR3 peptide 11] |  |  |  |  | 0.262
